Drawing on US6632817B2, “Fluoromethoximino compounds” (priority 1997, dated 2003), this text covers chromatographic logP, pest or weed control and Efficacy in % for 53 molecules.

Where only a bound is given, the exact number is not on record here.

Tested on in the first data set: not listed separately
Briefly: logP determination by HPLC (EEC Directive 79/831 Annex V. A8). The data set is classed as physicochemical. Particulars: HPLC gradient method, acetonitrile/0.1% aqueous phosphoric acid. The procedure:
The logP values are determined in accordance with EEC Directive 79/831 Annex V. A8 by HPLC (gradient method, acetonitrile/0.1% aqueous phosphoric acid).
For orientation: chromatographic logP means lipophilicity estimated from chromatographic retention. Low readings indicate a more hydrophilic compound, high ones a more lipophilic compound. In turn, `CNC(=O)C(=NOCF)c1ccccc1Oc1nc(-c2ccccc2)ns1` [Example 3, 2-fluoromethoxyimino-N-methyl-2-[2-(3-phenyl-[1,2,4]thiadiazol-5-yloxy)-phenyl]-acetamide] had a chromatographic logP of 2.9. On to `CNC(=O)/C(=N\OCF)c1ccccc1Oc1ncnc(Oc2cccc(C)c2Cl)c1F` [Example 27], for which the chromatographic logP was 3.32. `COC(=O)C(=NOCF)c1ccccc1O` [Example (II-1), methyl 2-fluoromethoxyimino-2-(2-hydroxyphenyl)-acetate] came in with a chromatographic logP of 1.6.

With `CNC(=O)C(=NOCF)c1ccccc1O` [Example (II-2), 2-fluoromethoxyimino-2-(2-hydroxyphenyl)-N-methylacetamide], the chromatographic logP amounted to 1.1. Still for that read-out and setting: the result for `COC(=O)C(=NOCF)c1ccccc1OC1CCCCO1` (centres unmarked) [Example (VI-1), methyl 2-fluoromethoxyimino-2-[2-(tetrahydropyran-2-yloxy)-phenyl]-acetate] reads 2.8.

A further data set has as its system Plasmopara viticola. Briefly: Plasmopara test (grapevine)/protective. Particulars: Plasmopara viticola, 144 h, protective, application rate 100 g/ha, evaluation 6 days after inoculation, read-out: Efficacy in %. The data set is classed as in vivo. How it is done:
Plasmopara Test (Grapevine)/Protective
(§1) Solvent: 47 parts by weight of acetone
(§2) Emulsifier: 3 parts by weight of alkylaryl polyglycol ether
(§3) To produce a suitable preparation of active compound, 1 part by weight of active compound is mixed with the stated amounts of solvent and emulsifier, and the concentrate is diluted with water to the desired concentration.
To test for protective activity, young plants are sprayed with the preparation of active compound at the stated application rate. After the spray coating has dried on, the plants are inoculated with an aqueous spore suspension of Plasmopara viticola and then remain in an incubation cabin at approximately 20° C. and 100% relative atmospheric humidity for 1 day. The plants are subsequently placed in a greenhouse at approximately 21° C. and approximately 90% relative atmospheric humidity for 5 days. The plants are then moistened and placed in an incubation cabin for 1 day.
Evaluation is carried out 6 days after the inoculation. 0% means an efficacy which corresponds to that of the control, whereas an efficacy of 100% means that no infection is observed.
On to `CNC(=O)C(=NOCF)c1ccccc1Oc1nc(-c2ccccc2)ns1` [Example 3, 2-fluoromethoxyimino-N-methyl-2-[2-(3-phenyl-[1,2,4]thiadiazol-5-yloxy)-phenyl]-acetamide], for which the pest or weed control at 100 g/ha is not below 98%. Turning to `CNC(=O)/C(=N\OCF)c1ccccc1Oc1ncnc(Oc2cccc(C)c2Cl)c1F` [Example 27], the pest or weed control at 100 g/ha was not below 98%. Consider `CNC(=O)C(NOCF)c1ccccc1Oc1ncnc(Oc2ccccc2)c1F` (centres unmarked) [drawing 57], for which the pest or weed control at 100 g/ha worked out at 100%. Regarding `CNC(=O)C(NOCF)c1ccccc1Oc1ncnc(Oc2ccccc2[N+](=O)[O-])c1F` (centres unmarked) [drawing 58], the pest or weed control at 100 g/ha is 96%. `CNC(=O)/C(=N\OCF)c1ccccc1Oc1ncnc(Oc2ccccc2Cl)c1F` [drawing 64]: the pest or weed control at 100 g/ha is 100%.

Take `CNC(=O)/C(=N\OCF)c1ccccc1Oc1nc(-c2cccc(OC(F)F)c2)ns1` [drawing 65]: the pest or weed control at 100 g/ha amounted to 99%.

The data set is the same for the next values; noted with them: protective, application rate 100 g/ha, evaluation 6 days after inoculation.
Regarding `COC(=O)C(=NOCF)c1ccccc1Oc1ncnc(Oc2ccccc2Cl)c1F` [drawing 50], the Efficacy in % amounted to 98%. Regarding `CNC(=O)C(=NOCF)c1ccccc1Oc1ncnc(Oc2ccccc2Cl)c1F` [drawing 51], the Efficacy in % amounted to 100%.

As to `CNC(=O)/C(=N\OCF)c1ccccc1Oc1ncnc(Oc2ccccc2C)c1F` [drawing 52], the Efficacy in % worked out at 100%. Consider `CNC(=O)/C(=N\OCF)c1ccccc1Oc1ncnc(Oc2cccc(Cl)c2C)c1F` [drawing 53], for which the Efficacy in % was found to be 100%. The molecule `CNC(=O)/C(=N\OCF)c1ccccc1Oc1nc(-c2cccc(OC(F)(F)F)c2)ns1` [drawing 54] registered an Efficacy in % of 100%. For `CNC(=O)C(=NOCF)c1ccccc1Oc1nc(-c2ccccc2)ns1` [drawing 55], the Efficacy in % turned out to be 100%. Regarding `CNC(=O)/C(=N\OCF)c1ccccc1Oc1ncnc(Oc2ccccc2OC(F)F)c1F` [drawing 56], the Efficacy in % is given as 96%.

Molecule `CNC(=O)/C(=N\OCF)c1ccccc1Oc1ncnc(Oc2cccc(C)c2C)c1F` [drawing 59] gave an Efficacy in % of 100%. Molecule `CNC(=O)/C(=N\OCF)c1ccccc1Oc1ncnc(Oc2ccccc2C#N)c1F` [drawing 60] yielded an Efficacy in % of 96%. The same measure, in the same setting: the result for `CNC(=O)/C(=N\OCF)c1ccccc1Oc1nc(-c2ccc(C(F)(F)F)cc2)ns1` [drawing 61] reads 100%; that for `CNC(=O)/C(=N\OCF)c1ccccc1Oc1nc(-c2cccc(C(F)(F)F)c2)ns1` [drawing 62], 100%. Turning to `CNC(=O)/C(=N\OCF)c1ccccc1Oc1nc(-c2ccc(OC(F)(F)F)cc2)ns1` [drawing 63], the Efficacy in % stood at 100%. Molecule `CNC(=O)/C(=N\OCF)c1ccccc1Oc1nc(-c2ccc(OC(F)F)cc2)ns1` [drawing 66] displayed an Efficacy in % of 100%.

Consider `CNC(=O)/C(=N\OCF)c1ccccc1Oc1ncnc(Oc2cccc(C)c2Cl)c1F` [drawing 67], for which the Efficacy in % stood at 100%.

For another data set, the system named is Puccinia recondita. In words: Puccinia test (wheat)/protective. The data set is classed as in vivo. Particulars: Puccinia recondita, 240 h, protective, application rate 250 g/ha, evaluation 10 days after inoculation, read-out: Efficacy in %. The procedure:
Puccinia Test (Wheat)/Protective
Solvent: 25 parts by weight of N,N-dimethylacetamide
Emulsifier: 0.6 part by weight of alkylaryl polyglycol ether
as §3
To test for protective activity, young plants are sprayed with the preparation of active compound at the stated application rate. After the spray coating has dried on, the plants are sprayed with a conidia suspension of Puccinia recondita. The plants remain in an incubation cabin at 20° C. and 100% relative atmospheric humidity for 48 hours.
The plants are then placed in a greenhouse at a temperature of approximately 20° C. and a relative atmospheric humidity of 80% to promote the development of rust pustules.
Evaluation is carried out 10 days after the inoculation. 0% means an efficacy which corresponds to that of the control, whereas an efficacy of 100% means that no infection is observed.
Turning to `CNC(=O)C(NOCF)c1ccccc1Oc1ncnc(Oc2cccc(Cl)c2Cl)c1F` (centres unmarked) [drawing 86], the pest or weed control at 250 g/ha came out at 100%. Consider `CNC(=O)C(NOCF)c1ccccc1Oc1ncnc(Oc2ccccc2)c1F` (centres unmarked) [drawing 88], for which the pest or weed control at 250 g/ha turned out to be 100%. For the molecule `CNC(=O)C(NOCF)c1ccccc1Oc1ncnc(Oc2ccccc2[N+](=O)[O-])c1F` (centres unmarked) [drawing 89], the pest or weed control at 250 g/ha is 100%. Same read-out and setting: the result for `CNC(=O)/C(=N\OCF)c1ccccc1Oc1ncnc(Oc2ccccc2Cl)c1F` [drawing 96] reads 100%.

The same data set, now with this note: protective, application rate 250 g/ha, evaluation 10 days after inoculation.
`COC(=O)C(=NOCF)c1ccccc1Oc1ncnc(Oc2ccccc2Cl)c1F` [drawing 84] showed an Efficacy in % of 80%. `CNC(=O)C(=NOCF)c1ccccc1Oc1ncnc(Oc2ccccc2Cl)c1F` [drawing 85] registered an Efficacy in % of 100%.

In the case of `CNC(=O)/C(=N\OCF)c1ccccc1Oc1ncnc(Oc2ccccc2OC(F)F)c1F` [drawing 87], the Efficacy in % turned out to be 100%.

Consider `CNC(=O)/C(=N\OCF)c1ccccc1Oc1ncnc(Oc2cccc(C)c2C)c1F` [drawing 90], for which the Efficacy in % was found to be 100%.

As to `CNC(=O)/C(=N\OCF)c1ccccc1Oc1ncnc(Oc2ccccc2C#N)c1F` [drawing 91], the Efficacy in % worked out at 100%. In turn, `CNC(=O)/C(=N\OCF)c1ccccc1Oc1ncnc(Oc2ccccc2C)c1F` [drawing 92] returned an Efficacy in % of 100%. Take `CNC(=O)/C(=N\OCF)c1ccccc1Oc1nc(-c2ccc(C(F)(F)F)cc2)ns1` [drawing 93]: the Efficacy in % is listed as 100%. Turning to `CNC(=O)/C(=N\OCF)c1ccccc1Oc1nc(-c2cccc(C(F)(F)F)c2)ns1` [drawing 94], the Efficacy in % is reported as 100%.

As for `CNC(=O)/C(=N\OCF)c1ccccc1Oc1nc(-c2ccc(OC(F)(F)F)cc2)ns1` [drawing 95], the Efficacy in % came out at 100%.

Regarding `CNC(=O)/C(=N\OCF)c1ccccc1Oc1nc(-c2ccc(OC(F)F)cc2)ns1` [drawing 97], the Efficacy in % came out at 100%.

Another data set deals with Venturia inaequalis. Briefly: Venturia test (apple)/protective. Format: in vivo. The note with it: Venturia inaequalis, 288 h, protective, application rate 10 g/ha, evaluation 12 days after inoculation, read-out: Efficacy in %. The procedure: Venturia Test (Apple)/Protective
as §1, §2, §3
To test for protective activity, young plants are sprayed with the preparation of active compound at the stated application rate. After the spray coating has dried on, the plants are inoculated with an aqueous conidia suspension of the causative organism of apple scab Venturia inaequalis and then remain in an incubation cabin at approximately 20° C. and 100% relative atmospheric humidity for 1 day.
The plants are then placed in a greenhouse at approximately 21° C. and a relative atmospheric humidity of approximately 90%.
Evaluation is carried out 12 days after the inoculation. 0% means an efficacy which corresponds to that of the control, whereas an efficacy of 100% means that no infection is observed.
As to `CNC(=O)C(=NOCF)c1ccccc1Oc1nc(-c2ccccc2)ns1` [Example 3, 2-fluoromethoxyimino-N-methyl-2-[2-(3-phenyl-[1,2,4]thiadiazol-5-yloxy)-phenyl]-acetamide], the pest or weed control at 10 g/ha is not below 99%.

With `CNC(=O)C(NOCF)c1ccccc1Oc1ncnc(Oc2cccc(Cl)c2Cl)c1F` (centres unmarked) [drawing 71], the pest or weed control at 10 g/ha was determined as 96%.

As to `CNC(=O)C(NOCF)c1ccccc1Oc1ncnc(Oc2ccccc2)c1F` (centres unmarked) [drawing 73], the pest or weed control at 10 g/ha worked out at 96%.

Turning to `CNC(=O)/C(=N\OCF)c1ccccc1Oc1ncnc(Oc2ccccc2Cl)c1F` [drawing 81], the pest or weed control at 10 g/ha is 100%.

On to `CNC(=O)/C(=N\OCF)c1ccccc1Oc1nc(-c2cccc(OC(F)F)c2)ns1` [drawing 82], for which the pest or weed control at 10 g/ha is 100%.

The same data set, now with this note: Venturia inaequalis, 288 h, protective, application rate 19 g/ha, evaluation 12 days after inoculation, read-out: Efficacy in %.
In the case of `CNC(=O)/C(=N\OCF)c1ccccc1Oc1nc(-c2ccc(C(F)(F)F)cc2)ns1` [drawing 78], the pest or weed control at 19 g/ha is 100%.

The same data set, now with this note: protective, application rate 10 g/ha, evaluation 12 days after inoculation.
For `COC(=O)C(=NOCF)c1ccccc1Oc1ncnc(Oc2ccccc2Cl)c1F` [drawing 68], the Efficacy in % came out at 100%. Same read-out and setting: the same measure for `CNC(=O)C(=NOCF)c1ccccc1Oc1ncnc(Oc2ccccc2Cl)c1F` [drawing 69]: 99%; for `CNC(=O)C(=NOCF)c1ccccc1Oc1nc(-c2ccccc2)ns1` [drawing 70]: 100%. Same read-out and setting: the result for `CNC(=O)/C(=N\OCF)c1ccccc1Oc1ncnc(Oc2ccccc2OC(F)F)c1F` [drawing 72] reads 95%.

For the molecule `CNC(=O)/C(=N\OCF)c1ccccc1Oc1ncnc(Oc2cccc(C)c2C)c1F` [drawing 74], the Efficacy in % was 100%. `CNC(=O)/C(=N\OCF)c1ccccc1Oc1ncnc(Oc2ccccc2C)c1F` [drawing 75] yielded an Efficacy in % of 100%. Same read-out and setting: the same measure for `CNC(=O)/C(=N\OCF)c1ccccc1Oc1ncnc(Oc2cccc(Cl)c2C)c1F` [drawing 76]: 98%; for `CNC(=O)/C(=N\OCF)c1ccccc1Oc1nc(-c2cccc(OC(F)(F)F)c2)ns1` [drawing 77]: 100%; for `CNC(=O)/C(=N\OCF)c1ccccc1Oc1nc(-c2cccc(C(F)(F)F)c2)ns1` [drawing 79]: 100%. `CNC(=O)/C(=N\OCF)c1ccccc1Oc1nc(-c2ccc(OC(F)(F)F)cc2)ns1` [drawing 80] registered an Efficacy in % of 100%. `CNC(=O)/C(=N\OCF)c1ccccc1Oc1nc(-c2ccc(OC(F)F)cc2)ns1` [drawing 83] had an Efficacy in % of 99%.
